The values that follow come from paper PMC11532403 (Signal Transduction and Targeted Therapy, 2024).

In one series the test system is patients. The settings on record: cited from earlier work.
Series [1] deals with RET-altered / thyroid / lung tumors. The note with it: cited from earlier work.
A further series has as its target hERG potassium channel (Homo sapiens, UniProt Q12809). Set-up: method as in literature. The settings on record: in vitro GLP hERG assay, ref literature; cited from earlier work.
Series [2] concerns HEK293T-KIF5B-RET^V804M xenograft. Briefly: Tumor xenograft model. The format is in vivo, BALB/c nude mice. The note with it: 20 mg/kg twice daily, 14 days. As for the experimental part:
All procedures relating to animal handling, care, and treatment were performed according to the Beijing Laboratory Animal Management Regulations. 6-week-old male BALB/c nude mice were inoculated subcutaneously into the flank with Baf3-CCDC6-RET^WT (5*10^6 cells/ 0.1 mL/ each), Baf3-CCDC6-RET^M918T (5*10^6 cells/0.1 mL/each), Baf3-CCDC6-RET^V804M (5*10^6 cells/ 0.1 mL/ each), or HEK293T-KIF5B-RET^V804M (5*10^6 cells/ 0.1 mL/ each). Mice were randomized by tumor size into groups of 10 to 12 when tumor volume reached approximately 100-150 mm^3. […] Tumor size and body weight were measured two times each week, and tumor volume was calculated with the following formula: [length × (width)^2]/ 2. Statistical significance was calculated by using two-way ANOVA test to assess the difference in tumor volumes between the control (vehicle-treated) and treatment groups.

A further series relates to MET. Also on record: method as in earlier work. The settings on record: read-out: MET IC50 ± SD; cited from earlier work.
The next series deals with VEGFR-2. Also on record: method as in earlier work. The note with it: read-out: VEGFR-2 IC50 ± SD; cited from earlier work.
A further series deals with RET. The settings on record: cited from earlier work.

Read-outs that look alike come from different tables or passages of the source.

Chain of hERG potassium channel (Q12809 whole entry): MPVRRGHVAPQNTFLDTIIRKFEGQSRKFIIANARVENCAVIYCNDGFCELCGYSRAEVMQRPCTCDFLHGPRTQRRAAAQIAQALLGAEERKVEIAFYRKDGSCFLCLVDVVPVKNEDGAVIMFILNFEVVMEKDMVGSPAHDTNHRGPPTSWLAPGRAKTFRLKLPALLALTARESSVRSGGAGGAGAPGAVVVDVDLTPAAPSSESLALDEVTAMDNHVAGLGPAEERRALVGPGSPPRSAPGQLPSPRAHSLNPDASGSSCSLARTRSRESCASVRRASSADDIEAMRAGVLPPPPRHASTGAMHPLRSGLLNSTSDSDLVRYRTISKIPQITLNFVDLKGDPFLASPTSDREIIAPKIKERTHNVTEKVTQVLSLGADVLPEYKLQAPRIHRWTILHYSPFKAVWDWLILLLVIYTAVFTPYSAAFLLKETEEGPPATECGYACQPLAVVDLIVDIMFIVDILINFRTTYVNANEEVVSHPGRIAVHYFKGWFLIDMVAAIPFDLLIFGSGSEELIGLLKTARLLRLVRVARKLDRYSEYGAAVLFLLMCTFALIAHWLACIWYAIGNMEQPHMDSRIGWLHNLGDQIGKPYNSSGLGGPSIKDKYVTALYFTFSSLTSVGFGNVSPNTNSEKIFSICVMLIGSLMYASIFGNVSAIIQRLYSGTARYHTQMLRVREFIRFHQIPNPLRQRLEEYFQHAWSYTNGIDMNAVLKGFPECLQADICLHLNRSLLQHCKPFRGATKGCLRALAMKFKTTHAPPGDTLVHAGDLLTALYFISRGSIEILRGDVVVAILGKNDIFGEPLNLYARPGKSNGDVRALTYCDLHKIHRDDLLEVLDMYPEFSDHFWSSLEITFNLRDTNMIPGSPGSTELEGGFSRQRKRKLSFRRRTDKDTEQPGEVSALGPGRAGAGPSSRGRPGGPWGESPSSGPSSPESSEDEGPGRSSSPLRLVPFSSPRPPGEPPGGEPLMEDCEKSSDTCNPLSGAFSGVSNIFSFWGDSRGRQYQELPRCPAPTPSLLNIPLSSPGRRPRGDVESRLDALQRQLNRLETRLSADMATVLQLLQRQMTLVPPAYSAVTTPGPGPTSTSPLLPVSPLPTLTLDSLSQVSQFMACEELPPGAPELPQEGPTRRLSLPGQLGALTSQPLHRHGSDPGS

Consider `CO[C@]1(C(=O)N[C@@H](C)c2ccc(-n3cc(F)cn3)nc2)CC[C@H](c2nc(C)cc(Nc3cc(C)[nH]n3)n2)CC1` [pralsetinib], for which, in the series with patients (ARROW ref 22,29), the “Grade ≥ 3 TRAEs” value is 54%, the “Grade ≥ 3 anemia” value is 12%, the “Grade ≥ 3 hypertension” value was 12% and the “Grade ≥ 3 leukopenia” value is given as 8%. For the same molecule, in the series on patients (ARROW ref 22,29), the “Grade ≥ 3 lymphopenia” value is given as 9%, the “Grade ≥ 3 neutropenia” value is reported as 20% and the TRSAEs was 24%. Also, in the series with patients, the Treatment-induced deaths is 0.4%, the Treatment-induced discontinuations was 7% and the Treatment-induced dose reductions is 38%. Further, in series [1] (ARROW, NSCLC ref 101), the Complete response is 14% and the “Patients with tumor shrinkage” value is 95%. Also, the ORR in series [1] (ARROW, RET fusion-positive NSCLC ref 101) was 61%. Further, the ORR in series [1] (ARROW, RET fusion-positive NSCLC, previously treated ref 29) is reported as 59%. Moreover, in series [1] (ARROW, RET fusion-positive NSCLC, treatment-naïve ref 29), the ORR is 72%. Besides, the ORR in series [1] (ARROW, RET-mutant MTC previously treated with vandetanib ref 101) is on record as 60%. Also, the ORR in series [1] (ARROW, treatment-naïve MTC ref 101) is 74%. In series [1] (ARROW, treatment-naïve RET-mutant MTC ref 31), the ORR is recorded as 71%.

As usually defined, the IC50 is the concentration needed to halve the response being measured. Usually TGI stands for the reduction of tumour growth relative to the control group. The low end stands for little slowing of growth, the high end for much slowing of growth. For `COc1ccc(CN2C3CC2CN(c2ccc(-c4cc(OCC(C)(C)O)cn5ncc(C#N)c45)cn2)C3)cn1` [selpercatinib], in the series with patients (LIBRETTO-001 ref 28), the “Grade ≥ 3 TRAEs” value is given as 38.6%. Further, the “Grade ≥ 3 hypertension” value in the series with patients (LIBRETTO-001 ref 28) was 13.2%. Moreover, in the series with patients (LIBRETTO-001 ref 28), the “Grade ≥ 3 increased ALT” value is given as 9.0%. The “Grade ≥ 3 increased AST” value in the series on patients (LIBRETTO-001 ref 28) is recorded as 6.3%. For the same molecule, the TRSAEs in the series on patients (LIBRETTO-001 ref 28) is given as 11%. The Treatment-induced deaths in the series on patients is 0.1%. For the same molecule, in the series with patients, the Treatment-induced discontinuations is listed as 3%. The Treatment-induced dose reductions in the series on patients was 41%. The IC50 at hERG potassium channel is 1100 nM. In addition, the TGI in series [2] is 45.2%. Further, the ORR in series [1] (LIBRETTO-001, 19 RET fusion-positive thyroid cancer ref 96-97) is 79%; in series [1] (LIBRETTO-001, 39 NSCLC without systemic therapy ref 96-97), 84%; in series [1] (LIBRETTO-001, 105 RET fusion-positive NSCLC ref 96-97), 64%; in series [1] (LIBRETTO-001, NSCLC, previously treated ref 28) it was 61%; in series [1] (LIBRETTO-001, RET-mutant thyroid cancer, 55 previously treated ref 96-97), 69%; in series [1] (LIBRETTO-001, RET-mutant thyroid cancer, 88 not previously treated ref 96-97) it was 73%. The ORR in series [1] (LIBRETTO-431, NSCLC, treatment-naïve ref 30) is listed as 84%; in series [1] (LIBRETTO-531, RET-mutant MTC ref 32), 69.4%. The results for the “1-year DoR rate” value in series [1] (previously treated ref 28) and in series [1] (treatment-naïve ref 28) were 73.1% and 66.1%, respectively. The “1-year PFS rate” value in series [1] (previously treated ref 28) is reported as 70.5%; in series [1] (treatment-naïve ref 28), 70.6%.

Consider `COc1cc2nccc(Oc3ccc(NC(=O)C4(C(=O)Nc5ccc(F)cc5)CC4)cc3)c2cc1OC` [cabozantinib], for which the half-maximal inhibitory concentration (IC50) in the series on MET was 1.3 ± 1.2 nM; with VEGFR-2, 0.035 ± 0.01 nM. The ORR in series [1] (NCT00704730, MTC ref 89) is given as 28%. Moreover, the mPFS in series [1] (NCT00704730, MTC, 140 mg/d ref 89) is given as 11.2 months. In series [1] (RET M918T-positive subgroup ref 89), the mOS is 44.3 months.

Take `CNC(=O)c1cc(Oc2ccc(NC(=O)Nc3ccc(Cl)c(C(F)(F)F)c3)cc2)ccn1` [sorafenib]: the PR rate in series [1] (DECISION ref 80) was 12.2%.

On to `COc1cc2nccc(Oc3ccc(NC(=O)NC4CC4)c(Cl)c3)c2cc1C(N)=O` [lenvatinib], for which the “Patients with grade 3 or higher AEs” value in the series on patients (NCT01877083 ref 93) is listed as 92%. Also, the ORR in series [1] (NCT01877083, RET fusion NSCLC, 24 mg/d ref 93) is recorded as 16%. For the same molecule, in series [1] (NCT01877083 ref 93), the DCR was 76% and the mPFS is given as 7.3 months.

For the molecule `COc1cc2c(Nc3ccc(Br)cc3F)ncnc2cc1OCC1CCN(C)CC1` [vandetanib], in the series on RET, the IC50 was […].
